Reference: BindingDB's records for doi:10.1016/j.ejmech.2023.115292 (National Research Centre, 2023)

Columns and labels:
[1] = Inhibition of SARS-CoV-2 RdRp transfected in human A549 cells incubated for 24 hrs by […]
[2] = Inhibition of SARS-CoV-2 RdRp transfected in HEK293T cells incubated for 24 hrs by […]

SMILES	EC50 [1]	EC50 [2]
CCOc1cccc(CNC(=O)CSc2cn(C(=O)OC(C)(C)C)c3ccccc23)c1	1.18 µM	1.41 µM
O=C(CSc1c[nH]c2ccccc12)c1ccc(Cl)c(Cl)c1		2.75 µM
Cc1cccc(C(=O)CSc2c[nH]c3ccccc23)c1		2.53 µM
